This note sets out measurements from ChEMBL document CHEMBL3638874, “Pyrrolopyrimidine compounds and their uses” (2015).

Structures are written as SMILES.

For assay [1], the target named is Cyclin-dependent kinase 2 (Homo sapiens, UniProt P24941). Put plainly: (§1) IMAP-FPT (Molecular Devices Trade Mark Technology) Endpoint Assay: The assay was run under the conditions identical to that for CDK1/cyclin B except 0.25 nM CDK1/cyclin B was replaced with 0.3 nM CDK2/cyclin A. A 384-well microtiter IMAP-FPT (Molecular Devices Trade Mark Technology) endpoint assay was used for CDK1/cyclin B kinase activity measurements. The same assay was used for IC50 determination of small molecule inhibitors. In general, the kinase reactions were carried out in 20 μL volumes in the reaction solution, which is composed of 2 μL compound (in 20% DMSO), 8 μL CDK1/cyclin B in the 1× Reaction Buffer (Molecular Devices, Cat. No. R8139), 10 μL substrate mixture of Tamra Histone-H1 peptide (Molecular Devices, Cat. No. R7384) and ATP (Amersham Pharmacia, Cat. No. 27-2056-01) in the 1× Reaction Buffer with 1 mM DTT freshly added. The final reaction mixture contains compound (inhibitor) with the concentration varying from 0.005-10 μM, 2% DMSO, 0.25 nM CDK1/cyclin B, 100 nM Tamra Histone-H1 peptide, and 20 μM ATP.

Assay [2] has as its target Cyclin-dependent kinase 1 (Homo sapiens, UniProt P06493). The assay is described as §1, with “Assay:” for “Assay: The assay was run under the conditions identical to that for CDK1/cyclin B except 0.25 nM CDK1/cyclin B was replaced with 0.3 nM CDK2/cyclin A.”, “uL” for “μL”, “1x” for “1×”, “uM,” for “μM,”, “uM ATP.All reactions were run at room temperature in black 384-well flat-bottom Costar plates (Corning, Cat. No. 3710) for 120 min then were quenched.” for “μM ATP.”.

Chain of Cyclin-dependent kinase 1 (P06493 whole entry): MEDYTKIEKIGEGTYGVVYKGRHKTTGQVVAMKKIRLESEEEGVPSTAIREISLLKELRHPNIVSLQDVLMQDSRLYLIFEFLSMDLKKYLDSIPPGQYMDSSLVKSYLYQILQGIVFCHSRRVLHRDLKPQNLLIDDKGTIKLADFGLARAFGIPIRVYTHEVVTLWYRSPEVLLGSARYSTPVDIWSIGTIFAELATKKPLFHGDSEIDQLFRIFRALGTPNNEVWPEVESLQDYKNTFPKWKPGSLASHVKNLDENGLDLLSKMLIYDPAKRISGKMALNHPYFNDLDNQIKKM

As to `CN(C)C(=O)c1cc2cnc(Nc3ccc(N4CCNCC4=O)cn3)nc2n1C1CCCC1`, the concentration for half-maximal inhibition (IC50) in assay [1] and in assay [2] was more than 15 µM in each case.
